Patent US11939294B1 (priority 2023, dated 2024)

Tested on: multidrug-resistant (MDR) strains of Mycobacterium tuberculosis
Assay: microbe, parasite or virus in culture
Format: cell-based
Conditions: 192 h, read-out: MIC (μg/mL) MDR-TB, MDR-TB: resistant at least to isoniazid and rifampicin, REMA, 8 days incubation at 37° C.

Molecule `Cc1cc(C)c[n+](CC(=O)c2ccc(F)cc2)c1.[Br-]` [Compound 3d, 1-(2-(4-Fluorophenyl)-2-oxoethyl)-3,5-dimethylpyridin-1-ium bromide] has an MIC of roughly 8 µg/mL.
